The results in this text go back to ChEMBL document CHEMBL1201862, “PubChem BioAssay data set” (2004).

What all share (experiment): NCI anticancer screen, dose series, 48 h
Assay [1] relates to HT-29.
For assay [2], the system named is A549.
In assay [3] the test system is 786-0.
The subject of assay [4] is COLO 205.
Assay [5] relates to KM12.
Assay [6] has as its system NCI-H226.
Assay [7] deals with UACC-62.
Assay [8] has as its system SF-295.
Assay [9] deals with Malme-3M.
Assay [10] has as its system A498.
Assay [11] deals with SNB-75.
For assay [12], the system named is HCT-15.
Assay [13] has as its system LOX IMVI.
The test system of assay [14] is OVCAR-4.
Assay [15] deals with ACHN.
The test system of assay [16] is CCRF-CEM.
Assay [17] deals with SK-MEL-2.
Assay [18] concerns SR.

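Five compound concentrations were applied to cells in 96-well plates for 48 hours; endpoints were derived by simple linear interpolation of the resulting dose-response curve. GI50 = concentration required for 50% inhibition of growth.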 Active and inactive are the calls of the source. No stated cut-off is given here; in the data, active = GI50 up to about 1.1 µM and inactive = higher.

In the case of `Cc1nc2c(N)ncnc2o1`, the GI50 in assay [1], in [2], in [3], in assay [4], in assay [5] and in [6] was > 100 µM (inactive) in each case. Also, the GI50 in [7] is > 100 µM (inactive); in assay [8], > 100 µM (inactive); in assay [9], > 100 µM (inactive); in [10] it was > 100 µM (inactive); in assay [11], > 100 µM (inactive); in assay [12], over 100 µM. For the same molecule, the GI50 in assay [13], in assay [14], in assay [15], in assay [16] and in [17] was > 100 µM (inactive) throughout.
In the case of `N#CC(C#N)=c1c2nsnc2c(=C(C#N)C#N)c2nsnc12`, the GI50 in [1] is 1.59 µM (inactive); in assay [2], 3.6 µM (inactive); in assay [3], 5.16 µM (inactive); in assay [4] it was 2.52 µM (inactive); in assay [5], 1.85 µM (inactive); in assay [6] it was 16.7 µM (inactive). The GI50 in assay [8] is 1.89 µM (inactive); in [9], 1.65 µM (inactive); in assay [11] it was 1.51 µM (inactive); in assay [13], 1.58 µM (inactive); in [14], 1.96 µM (inactive); in assay [15], 1.81 µM (inactive). Also, the GI50 in [17] was 2.02 µM (inactive).
As to `CCCCN(CCCC)CCCn1cnc2ncccc2c1=O`, the GI50 was > 100 µM (inactive) in [1]; > 100 µM (inactive) in assay [2]; > 100 µM (inactive) in assay [3]; 65.6 µM (inactive) in assay [4]; > 100 µM (inactive) in assay [5]; > 100 µM (inactive) in assay [6]. Also, the GI50 in assay [7], in [8], in assay [9], in [11], in [13] and in assay [18] was > 100 µM (inactive) throughout. For the same molecule, the GI50 in assay [14], in [15], in assay [16] and in assay [17] was > 100 µM (inactive) each time.
As for `CCCN(CCC)c1c([N+](=O)[O-])cc(C(N)=O)cc1[N+](=O)[O-]`, the GI50 in [1] was > 100 µM (inactive); in assay [2], 81.8 µM (inactive); in [3], > 100 µM (inactive); in assay [4], 86.9 µM (inactive); in assay [5], > 100 µM (inactive); in assay [6], > 100 µM (inactive). The GI50 in [8] was > 100 µM (inactive); in [9], 62.1 µM (inactive); in assay [11], > 100 µM (inactive); in [12] it was 62.2 µM; in [14], > 100 µM (inactive); in assay [15], > 100 µM (inactive). Moreover, the values for the GI50 in assay [16] and in assay [17] were 39.1 µM (inactive) and 74.5 µM (inactive), respectively.
On to `O=c1[nH]c2c(c3ccccc13)CCc1ccccc1-2`, for which the GI50 in [1], in [2], in assay [3], in assay [4], in assay [5] and in assay [6] was > 100 µM (inactive) each time. For the same molecule, the GI50 in assay [7] is > 10 µM (inactive); in assay [8] it was > 100 µM (inactive); in assay [9], > 100 µM (inactive); in [11], > 100 µM (inactive); in assay [12], over 100 µM; in assay [18], > 100 µM (inactive). Also, the GI50 in assay [14], in assay [15] and in assay [17] was > 100 µM (inactive) throughout.
Turning to `Cc1ccccc1NC(=O)C(=O)c1c(O)c2ccc(O)cc2oc1=O`, the GI50 in assay [1], in [2], in assay [3], in assay [4], in assay [5] and in assay [6] was > 100 µM (inactive) each time. Also, the GI50 was > 100 µM (inactive) in assay [7]; > 100 µM (inactive) in assay [9]; > 100 µM (inactive) in assay [10]; > 100 µM (inactive) in [11]; over 100 µM in assay [12]; > 100 µM (inactive) in assay [13]. The GI50 in assay [14], in assay [15], in [16] and in assay [17] was > 100 µM (inactive) each time.
With `Cc1cc2c(=O)c3ccc(Cl)cc3[nH]c2c(C(=O)O)c1C`, the GI50 is > 100 µM (inactive) in [1]; > 100 µM (inactive) in assay [2]; > 100 µM (inactive) in [3]; > 100 µM (inactive) in assay [4]; 32.4 µM (inactive) in [5]; > 100 µM (inactive) in [6]. Besides, the GI50 in assay [7] is > 100 µM (inactive); in assay [8], > 100 µM (inactive); in assay [9] it was > 100 µM (inactive); in assay [11], > 100 µM (inactive); in [12], over 100 µM; in assay [13], > 100 µM (inactive). The GI50 in assay [14], in assay [15], in [16] and in assay [17] was > 100 µM (inactive) in each case.
For the molecule `CC(C)C1COC(c2ccc3ccccc3c2-c2c(O[Si](C)(C)C(C)(C)C)ccc3ccccc23)=N1` (stereo not given), the GI50 in assay [1] was 15.5 µM (inactive); in assay [2], 17.4 µM (inactive); in [3], 18.4 µM (inactive); in assay [4], 18.4 µM (inactive); in [5], 17.9 µM (inactive); in [6], 11.8 µM (inactive). Besides, the GI50 was 15.8 µM (inactive) in assay [7]; 17.2 µM (inactive) in assay [8]; 18.4 µM (inactive) in [9]; 19.2 µM (inactive) in [10]; 17.9 µM (inactive) in assay [11]; 22.3 µM in assay [12]. Further, the GI50 was 19.7 µM (inactive) in [13]; 14.6 µM (inactive) in [14]; 18.9 µM (inactive) in assay [15]; 18.1 µM (inactive) in assay [16]; 16.1 µM (inactive) in assay [17].
Consider `Cc1nc2c(n1CCC(C)C)C(=O)c1ccccc1C2=O`, for which the GI50 in [1] is 20.5 µM (inactive); in assay [2] it was 30.4 µM (inactive); in assay [3] it was 24.9 µM (inactive); in assay [4] it was 14.3 µM (inactive); in [5] it was 21.3 µM (inactive); in assay [6] it was 45.2 µM (inactive). The GI50 in assay [7] was 12.2 µM (inactive); in assay [8], 21.3 µM (inactive); in assay [9], 24.1 µM (inactive); in assay [11] it was 20.1 µM (inactive); in assay [12], 11.9 µM; in assay [13], 14.7 µM (inactive). The GI50 in assay [18] is 4.71 µM (inactive); in assay [14], 36.6 µM (inactive); in assay [15] it was 29.9 µM (inactive); in [16], 13.6 µM (inactive); in [17], 17.5 µM (inactive).
`O=C(CCC(=O)C(C(=O)c1ccccc1)c1ccccc1)Nc1cccc(C(F)(F)F)c1` (stereo not given): the GI50 in assay [1], in assay [2], in [3], in assay [4], in [5] and in [6] was > 100 µM (inactive) each time. Besides, the GI50 was > 100 µM (inactive) in assay [7]; > 100 µM (inactive) in assay [8]; > 100 µM (inactive) in assay [9]; > 100 µM (inactive) in assay [10]; over 100 µM in assay [12]; > 100 µM (inactive) in assay [13]. In addition, the GI50 in assay [14], in assay [15], in assay [16] and in assay [17] was > 100 µM (inactive) in each case.
With `C=CCN1CCC23c4c5ccc(O)c4OC2C(=NN=C2CCC4(O)C6Cc7ccc(O)c8c7C4(CCN6CC=C)C2O8)CCC3(O)C1C5` (stereo not given), the GI50 in assay [1] was 18.3 µM (inactive); in assay [2], 21.4 µM (inactive); in assay [3], 18.3 µM (inactive); in [4], 19.9 µM (inactive); in assay [5] it was 21.2 µM (inactive); in assay [6], > 100 µM (inactive). Also, the GI50 was 21 µM (inactive) in [7]; 20.7 µM (inactive) in assay [8]; 19.1 µM (inactive) in assay [9]; 20.2 µM (inactive) in assay [10]; 17.1 µM (inactive) in assay [11]; 35.5 µM in assay [12]. In addition, the GI50 in assay [13] was 20 µM (inactive); in [14], 22 µM (inactive); in [15] it was 20.2 µM (inactive); in [16] it was 34.8 µM (inactive); in [17] it was 18 µM (inactive).
`CCOC(=O)C1N(S(=O)(=O)c2ccc(C)cc2)CCC12c1ccccc1N(C(C)=O)C2c1ccc(OC)c(OC)c1` (stereo not given): the GI50 was > 100 µM (inactive) in assay [1]; > 100 µM (inactive) in assay [2]; > 100 µM (inactive) in assay [3]; > 100 µM (inactive) in [4]; > 100 µM (inactive) in assay [5]; 19.9 µM (inactive) in assay [6]. The GI50 in assay [7] is > 100 µM (inactive); in assay [8], > 100 µM (inactive); in assay [9] it was > 100 µM (inactive); in assay [10], > 100 µM (inactive); in assay [11] it was 74 µM (inactive); in [13] it was > 100 µM (inactive). Besides, the figures for the GI50 in assay [14], in [15] and in assay [16] were 71.1 µM (inactive), > 100 µM (inactive) and > 100 µM (inactive), respectively.
Consider `COC(=O)C(Cc1c[nH]c2ccccc12)NC(=O)C(Cc1c[nH]c2ccccc12)NC(=O)OCc1ccccc1` (stereo not given), for which the GI50 in assay [1] is 20 µM (inactive); in assay [2] it was 17.8 µM (inactive); in assay [3], 16.2 µM (inactive); in assay [4], 16.8 µM (inactive); in [5] it was 19.1 µM (inactive); in assay [6], 22.1 µM (inactive). The GI50 in [7] was 19.3 µM (inactive); in [8] it was 17.9 µM (inactive); in [9], 39.6 µM (inactive); in assay [10], 72.8 µM (inactive); in assay [11], 21.6 µM (inactive); in [12] it was 17.4 µM. Also, the GI50 in assay [13] is 18.3 µM (inactive); in assay [14], 16.4 µM (inactive); in assay [15], 21.6 µM (inactive); in [16] it was 21.7 µM (inactive).
